This note sets out measurements from the NIST ThermoML archive (doi:10.1021/je0504459).

Molecules are shown by their SMILES. Numbers after ± are expanded uncertainties.

For series [1] the following is noted: 101 kPa, Liquid; for speed of sound: Sing-around technique in a fixed-path interferometer.
A short description of series [2]: xn = mol fraction of the nth substance listed. As to conditions: 101 kPa, Liquid, x2 = 0; for speed of sound: Sing-around technique in a fixed-path interferometer.

What is called mass density is mass per unit of volume. One may read the speed of sound as the propagation velocity of pressure waves in the medium. Turning to `CCCCCO` [pentan-1-ol], in series [1] (303.15 K), the kinematic viscosity came to 3.73e-06 ± 4.2e-08 m2/s, the mass density is on record as 808.6 ± 0.44 kg/m3 and the speed of sound was determined as 1264 ± 3 m/s. Also, in series [1] (313.15 K), the kinematic viscosity stood at 2.89e-06 ± 3.3e-08 m2/s, the mass density stood at 800.99 ± 0.48 kg/m3 and the speed of sound stood at 1228 ± 3 m/s.
`ClC(Cl)Cl` [trichloromethane]: in series [1] (303.15 K), the kinematic viscosity was 3.63e-07 ± 8e-09 m2/s, the mass density is listed as 1469.21 ± 1.1 kg/m3 and the speed of sound is on record as 969 ± 2 m/s. In series [1] (313.15 K), the kinematic viscosity is 3.39e-07 ± 8e-09 m2/s, the mass density is reported as 1449.74 ± 1.1 kg/m3 and the speed of sound was 934 ± 2 m/s.
As to `CCCCCCO` [hexan-1-ol] + ClC(Cl)Cl, in series [2] (303.15 K), the speed of sound is 1289 ± 3 m/s, the kinematic viscosity was 4.68e-06 ± 5.6e-08 m2/s and the mass density was 811.65 ± 0.57 kg/m3. Besides, in series [2] (313.15 K), the speed of sound was 1256 ± 3 m/s, the kinematic viscosity was 3.63e-06 ± 4.4e-08 m2/s and the mass density is recorded as 804.24 ± 0.6 kg/m3.
As to `CCCCCO` [pentan-1-ol] + ClC(Cl)Cl, in series [2] (303.15 K), the speed of sound came to 1264 ± 3 m/s, the kinematic viscosity is 3.73e-06 ± 4.2e-08 m2/s and the mass density amounted to 808.6 ± 0.44 kg/m3. Moreover, in series [2] (313.15 K), the speed of sound was 1228 ± 3 m/s, the kinematic viscosity was found to be 2.89e-06 ± 3.3e-08 m2/s and the mass density is 800.99 ± 0.48 kg/m3.
In the case of `CCCCCCO` [hexan-1-ol], in series [1] (303.15 K), the kinematic viscosity was found to be 4.68e-06 ± 5.6e-08 m2/s, the mass density came to 811.65 ± 0.57 kg/m3 and the speed of sound was found to be 1289 ± 3 m/s. In series [1] (313.15 K), the kinematic viscosity was found to be 3.63e-06 ± 4.4e-08 m2/s, the mass density stood at 804.24 ± 0.6 kg/m3 and the speed of sound came to 1256 ± 3 m/s.
As to `CCCCCCCO` [heptan-1-ol], in series [1] (303.15 K), the kinematic viscosity was 6.19e-06 ± 7.1e-08 m2/s, the mass density is given as 814.94 ± 0.57 kg/m3 and the speed of sound is 1312 ± 3 m/s. In series [1] (313.15 K), the kinematic viscosity amounted to 4.59e-06 ± 5.5e-08 m2/s, the mass density amounted to 807.77 ± 0.6 kg/m3 and the speed of sound amounted to 1278 ± 3 m/s.
`CCCCCCCO` [heptan-1-ol] + ClC(Cl)Cl: in series [2] (303.15 K), the speed of sound was 1312 ± 3 m/s, the kinematic viscosity amounted to 6.19e-06 ± 7.1e-08 m2/s and the mass density amounted to 814.94 ± 0.57 kg/m3. In series [2] (313.15 K), the speed of sound is reported as 1278 ± 3 m/s, the kinematic viscosity was 4.59e-06 ± 5.5e-08 m2/s and the mass density turned out to be 807.77 ± 0.6 kg/m3.
